Here are results for ten compounds from ChEMBL document CHEMBL1909046, “DrugMatrix in vitro pharmacology data”.

Assay [1] concerns the target T1, Endothelin-1 receptor (Homo sapiens, UniProt P25101). Further: in other assays of this panel Not Active means under 50% inhibition at 10 µM.
T1 sequence (P25101 whole entry): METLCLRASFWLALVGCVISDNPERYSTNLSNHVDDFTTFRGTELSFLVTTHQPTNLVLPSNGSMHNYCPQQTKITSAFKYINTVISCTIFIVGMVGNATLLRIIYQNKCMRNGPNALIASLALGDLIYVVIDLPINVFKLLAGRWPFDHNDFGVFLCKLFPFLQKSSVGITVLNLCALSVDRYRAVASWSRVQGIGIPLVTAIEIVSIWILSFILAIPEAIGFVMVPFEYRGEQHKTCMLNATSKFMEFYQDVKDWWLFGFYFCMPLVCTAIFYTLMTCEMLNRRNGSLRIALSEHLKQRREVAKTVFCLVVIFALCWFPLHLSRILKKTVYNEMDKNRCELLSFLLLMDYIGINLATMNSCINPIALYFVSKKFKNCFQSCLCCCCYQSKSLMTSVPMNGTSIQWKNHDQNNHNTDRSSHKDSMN
In kind it is cell membranes, Membrane. The following applies: cho-k1.

For assay [2], the target named is T2, C-X-C chemokine receptor type 1 (Homo sapiens, UniProt P25024). Further: in other assays of this panel Not Active means under 50% inhibition at 10 µM.
T2 sequence (P25024 whole entry): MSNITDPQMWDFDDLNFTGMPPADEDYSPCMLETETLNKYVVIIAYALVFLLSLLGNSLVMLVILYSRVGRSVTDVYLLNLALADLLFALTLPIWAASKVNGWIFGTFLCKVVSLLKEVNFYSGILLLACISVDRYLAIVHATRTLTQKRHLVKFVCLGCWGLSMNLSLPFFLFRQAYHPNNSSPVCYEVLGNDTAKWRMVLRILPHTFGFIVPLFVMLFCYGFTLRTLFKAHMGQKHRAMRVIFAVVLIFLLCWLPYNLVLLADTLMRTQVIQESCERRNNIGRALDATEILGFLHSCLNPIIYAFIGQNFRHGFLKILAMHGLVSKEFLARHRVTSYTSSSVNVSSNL

In assay [3] the target is Sigma non-opioid intracellular receptor 1 (Homo sapiens, UniProt Q99720). The experiment in a line: DRUGMATRIX: Sigma1 radioligand binding (ligand: [3H] Haloperidol). The settings on record: Not Active = under 50% inhibition at 10 µM. In kind it is cell membranes, Jurkat, Membrane.
Assay [4] concerns the target T3, Neuropeptide Y receptor type 2 (Homo sapiens, UniProt P49146). Further: in other assays of this panel Not Active means under 50% inhibition at 10 µM.
T3 sequence (P49146 whole entry): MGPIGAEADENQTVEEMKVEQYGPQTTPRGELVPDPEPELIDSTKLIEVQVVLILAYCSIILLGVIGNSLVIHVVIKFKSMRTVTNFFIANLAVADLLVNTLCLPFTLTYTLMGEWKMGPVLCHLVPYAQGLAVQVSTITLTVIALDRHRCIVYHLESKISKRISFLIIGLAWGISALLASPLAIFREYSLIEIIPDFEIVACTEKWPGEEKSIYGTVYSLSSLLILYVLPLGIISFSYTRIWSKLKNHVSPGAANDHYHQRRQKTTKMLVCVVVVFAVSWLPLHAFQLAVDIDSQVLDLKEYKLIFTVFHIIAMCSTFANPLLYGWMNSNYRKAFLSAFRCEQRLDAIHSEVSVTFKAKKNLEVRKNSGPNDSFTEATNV
The assay is classed as cell membranes, Membrane. The settings on record: kan-ts.

Assay [5] in a line: DRUGMATRIX: Calcium Channel Type L, Phenylalkylamine radioligand binding (ligand: [3H] (-)-Desmethoxyverapamil (D-888)). The settings on record: Not Active = under 50% inhibition at 10 µM. In kind it is cell membranes, Rattus norvegicus, Wistar, Brain, Membrane.
Assay [6] addresses Receptor tyrosine-protein kinase erbB-2 (Homo sapiens, UniProt P04626). The experiment in a line: biochemical. In kind it is cell-based, Insect cells.
Assay [7] deals with T4, Alpha-1A adrenergic receptor (Rattus norvegicus, UniProt P43140).
T4 sequence (P43140 whole entry): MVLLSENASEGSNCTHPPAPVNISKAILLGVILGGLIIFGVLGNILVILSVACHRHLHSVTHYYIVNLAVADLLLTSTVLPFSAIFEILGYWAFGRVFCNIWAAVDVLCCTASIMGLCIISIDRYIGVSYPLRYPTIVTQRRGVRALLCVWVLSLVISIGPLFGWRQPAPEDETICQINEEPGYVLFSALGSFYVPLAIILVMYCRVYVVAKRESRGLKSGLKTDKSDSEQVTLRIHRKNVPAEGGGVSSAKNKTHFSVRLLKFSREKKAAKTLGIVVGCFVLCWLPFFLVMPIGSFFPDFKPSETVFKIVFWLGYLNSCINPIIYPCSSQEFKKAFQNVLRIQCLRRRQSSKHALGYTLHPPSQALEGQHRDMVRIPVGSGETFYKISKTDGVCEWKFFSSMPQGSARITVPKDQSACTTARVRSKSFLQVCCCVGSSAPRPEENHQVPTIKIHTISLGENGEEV
Briefly: DRUGMATRIX: Alpha-1A adrenergic receptor radioligand binding (ligand: prazosin). The settings on record: Not Active = under 50% inhibition at 10 µM; for Ki: read-out: Ki. The assay is classed as cell membranes, Wistar, Submaxillary gland, Membrane.

In assay [8] the target is T5, Alpha-2A adrenergic receptor (Homo sapiens, UniProt P08913). Further: in other assays of this panel Not Active means under 50% inhibition at 10 µM.
T5 sequence (P08913 whole entry): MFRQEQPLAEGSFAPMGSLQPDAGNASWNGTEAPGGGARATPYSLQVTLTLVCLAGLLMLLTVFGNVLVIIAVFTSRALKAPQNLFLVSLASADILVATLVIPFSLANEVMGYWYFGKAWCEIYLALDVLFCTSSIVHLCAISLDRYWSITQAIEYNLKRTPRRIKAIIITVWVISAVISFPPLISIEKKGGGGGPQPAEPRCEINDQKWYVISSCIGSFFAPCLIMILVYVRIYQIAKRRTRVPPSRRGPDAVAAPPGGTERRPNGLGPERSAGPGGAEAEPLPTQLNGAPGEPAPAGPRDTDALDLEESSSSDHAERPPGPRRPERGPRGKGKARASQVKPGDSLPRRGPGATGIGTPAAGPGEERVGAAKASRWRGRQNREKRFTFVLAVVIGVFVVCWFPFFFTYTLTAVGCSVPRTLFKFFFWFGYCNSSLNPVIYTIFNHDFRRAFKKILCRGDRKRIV
In kind it is cell membranes, Sf9, Membrane. The following applies: sf9.

The target of assay [9] is T6, Adenosine receptor A1 (Homo sapiens, UniProt P30542).
T6 sequence (P30542 whole entry): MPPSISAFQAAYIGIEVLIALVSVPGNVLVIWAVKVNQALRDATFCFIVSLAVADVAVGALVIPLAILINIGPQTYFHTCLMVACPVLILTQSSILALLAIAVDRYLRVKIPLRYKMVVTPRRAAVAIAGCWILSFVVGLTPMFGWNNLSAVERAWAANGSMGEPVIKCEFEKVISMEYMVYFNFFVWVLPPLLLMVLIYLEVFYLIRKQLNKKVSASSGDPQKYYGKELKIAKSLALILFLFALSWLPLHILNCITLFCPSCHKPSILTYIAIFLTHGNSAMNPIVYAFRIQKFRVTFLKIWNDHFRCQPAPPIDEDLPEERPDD
In kind it is cell membranes, CHO, Membrane. The settings on record: cho.

Receptor tyrosine-protein kinase erbB-2, sequence (P04626 whole entry): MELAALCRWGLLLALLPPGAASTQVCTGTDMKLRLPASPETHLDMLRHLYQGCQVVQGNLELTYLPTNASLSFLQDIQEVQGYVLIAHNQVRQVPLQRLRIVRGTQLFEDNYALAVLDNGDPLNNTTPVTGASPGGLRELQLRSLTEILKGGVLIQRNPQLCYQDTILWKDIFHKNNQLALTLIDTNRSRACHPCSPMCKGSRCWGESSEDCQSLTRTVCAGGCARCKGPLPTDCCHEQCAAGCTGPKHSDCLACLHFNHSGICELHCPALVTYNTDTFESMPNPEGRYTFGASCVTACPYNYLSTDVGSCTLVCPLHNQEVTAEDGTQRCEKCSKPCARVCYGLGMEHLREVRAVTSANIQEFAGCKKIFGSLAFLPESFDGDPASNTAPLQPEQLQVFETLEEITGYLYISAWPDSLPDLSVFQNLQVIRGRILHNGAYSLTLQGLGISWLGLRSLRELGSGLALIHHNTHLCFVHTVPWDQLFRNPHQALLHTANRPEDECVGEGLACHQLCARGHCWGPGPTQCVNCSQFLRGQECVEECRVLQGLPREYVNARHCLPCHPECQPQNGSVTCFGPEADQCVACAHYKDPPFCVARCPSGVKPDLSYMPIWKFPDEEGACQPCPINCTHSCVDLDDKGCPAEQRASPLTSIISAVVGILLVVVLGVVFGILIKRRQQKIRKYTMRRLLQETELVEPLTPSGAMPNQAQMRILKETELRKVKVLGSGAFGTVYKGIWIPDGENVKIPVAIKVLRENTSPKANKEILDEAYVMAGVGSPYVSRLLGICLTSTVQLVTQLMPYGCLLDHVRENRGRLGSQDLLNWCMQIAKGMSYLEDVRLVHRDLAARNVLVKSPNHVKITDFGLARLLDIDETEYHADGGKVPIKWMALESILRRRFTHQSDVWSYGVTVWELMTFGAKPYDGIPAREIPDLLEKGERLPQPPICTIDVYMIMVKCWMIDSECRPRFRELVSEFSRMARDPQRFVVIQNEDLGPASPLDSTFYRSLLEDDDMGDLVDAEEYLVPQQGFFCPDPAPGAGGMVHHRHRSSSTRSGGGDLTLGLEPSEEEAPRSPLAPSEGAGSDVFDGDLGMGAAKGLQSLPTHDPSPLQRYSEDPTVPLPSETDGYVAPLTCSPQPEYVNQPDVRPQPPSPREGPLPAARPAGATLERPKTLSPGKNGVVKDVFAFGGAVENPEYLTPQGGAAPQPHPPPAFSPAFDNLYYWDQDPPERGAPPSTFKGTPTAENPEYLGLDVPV
Sigma non-opioid intracellular receptor 1, sequence (Q99720 whole entry): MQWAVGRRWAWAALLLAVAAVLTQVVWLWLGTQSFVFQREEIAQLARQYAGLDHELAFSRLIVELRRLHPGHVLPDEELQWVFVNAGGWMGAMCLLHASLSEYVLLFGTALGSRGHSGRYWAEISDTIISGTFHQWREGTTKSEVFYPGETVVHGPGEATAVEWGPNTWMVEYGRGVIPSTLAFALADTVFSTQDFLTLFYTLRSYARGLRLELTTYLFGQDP

As to `CC1(C)[C@H]2CC[C@]1(C)C(=O)C2` [(-)-CAMPHOR], the IC50 entry in [1], in [2], in assay [3] (jurkat), in assay [4], in assay [5] and in assay [6] (insect cells) was “Not Active” each time. Also, the IC50 result in assay [7], in assay [8] and in assay [9] was “Not Active” throughout. Besides, in [5], the inhibition constant Ki – broadly, a measure of affinity in units of concentration, obtained from inhibition or displacement – is reported as “Not Active”.

As to `CC(C)(C)NCC(O)c1ccc(O)c(CO)c1` (stereo not drawn) [ALBUTEROL], the IC50 result in assay [1], in assay [2], in assay [3] (jurkat), in assay [4], in assay [5] and in [6] (insect cells) was “Not Active” in each case. For the same compound, the IC50 result in assay [7], in assay [8] and in [9] was “Not Active” throughout. The Ki result in [5] was “Not Active”.

Consider `Oc1c(I)cc(I)c2cccnc12` [IODOQUINOL], for which the IC50 (commonly the concentration at which inhibition is half-maximal) in assay [1] was “Not Active”; in [2], “Not Active”; in [3] (jurkat), “Not Active”; in [4], “Not Active”; in [5] it was “Not Active”; in [6] (read-out: IC50), 8580 nM. Moreover, the IC50 result in [7], in assay [8] and in assay [9] was “Not Active” throughout. Also, in assay [5], the Ki entry is given as “Not Active”.

Turning to `NNC(=O)c1ccncc1` [ISONIAZID], the IC50 entry in assay [1], in [2], in assay [3] (jurkat), in assay [4], in assay [5] and in assay [6] (insect cells) was “Not Active” each time. Moreover, the half-inhibitory concentration (IC50) result in [7], in assay [8] and in assay [9] was “Not Active” throughout. In addition, in assay [5], the Ki result is “Not Active”.

Take `CC1=C(/C=C/C(C)=C/C=C/C(C)=C\C(=O)O)C(C)(C)CCC1` [ISOTRETINOIN]: the 50% inhibitory concentration (IC50) result in assay [1], in assay [2], in [3] (jurkat), in assay [4], in [5] and in assay [6] (insect cells) was “Not Active” each time. Also, the IC50 result in assay [7], in assay [8] and in assay [9] was “Not Active” throughout. For the same compound, the inhibition constant (Ki) entry in [5] is reported as “Not Active”.

Consider `CO[C@@H]1[C@@H](O[C@@H]2O[C@H](C)[C@@H](O[C@H]3C[C@@](C)(O)[C@@H](OC(=O)CC(C)C)[C@H](C)O3)[C@H](N(C)C)[C@H]2O)[C@@H](CC=O)C[C@@H](C)[C@@H](O)/C=C/C=C/C[C@@H](C)OC(=O)C[C@H]1O` [KITASAMYCIN], for which the IC50 entry in assay [1], in assay [2], in assay [3] (jurkat), in [4], in assay [5] and in assay [6] (insect cells) was “Not Active” in each case. Moreover, the IC50 is 1540 nM in assay [7] (read-out: IC50), “Not Active” in assay [8] and “Not Active” in [9]. The results for the Ki result in [5] and in [7] were “Not Active” and 625 nM, respectively.

In the case of `CC(CCc1ccccc1)NCC(O)c1ccc(O)c(C(N)=O)c1` (stereo not drawn) [LABETALOL], the IC50 result in assay [1] was “Not Active”; in [2], “Not Active”; in assay [3] (read-out: IC50), 1810 nM; in assay [4], “Not Active”; in assay [5], “Not Active”; in assay [6] (insect cells), “Not Active”. Besides, the IC50 was 57 nM in assay [7] (read-out: IC50), “Not Active” in assay [8] and “Not Active” in assay [9]. Further, the values for the Ki in assay [3] (read-out: Ki), in assay [5] and in [7] were 763 nM, “Not Active” and 23 nM, respectively.

For `Nc1nnc(-c2cccc(Cl)c2Cl)c(N)n1` [LAMOTRIGINE], the IC50 result in assay [1], in [2], in assay [3] (jurkat), in assay [4], in [5] and in assay [6] (insect cells) was “Not Active” each time. In addition, the IC50 entry in [7], in [8] and in [9] was “Not Active” each time. In addition, the Ki result in [5] was “Not Active”.

Turning to `CCC[C@@H]1C[C@@H](C(=O)N[C@@H]([C@H]2O[C@H](SC)[C@H](O)[C@@H](O)[C@H]2O)[C@@H](C)O)N(C)C1` [LINCOMYCIN], the IC50 entry in [1], in [2], in [3] (jurkat), in assay [4], in assay [5] and in assay [6] (insect cells) was “Not Active” throughout. Further, the IC50 entry in assay [7], in [8] and in [9] was “Not Active” in each case. Further, the Ki result in assay [5] is on record as “Not Active”.

In the case of `NCCCC[C@H](N[C@@H](CCc1ccccc1)C(=O)O)C(=O)N1CCC[C@H]1C(=O)O` [LISINOPRIL ANHYDROUS], the IC50 entry in [1], in assay [2], in assay [3] (jurkat), in assay [4], in [5] and in assay [6] (insect cells) was “Not Active” in each case. The half-maximal inhibitory concentration (IC50) result in [7], in assay [8] and in assay [9] was “Not Active” throughout. Also, the Ki entry in assay [5] is given as “Not Active”.
